This note sets out measurements from patent US20180201592A1, “2-AMINO-1,3,4-THIADIAZINE AND 2-AMINO-1,3,4-OXADIAZINE BASED ANTIFUNGAL AGENTS” (F2G Limited, priority 2015, published 2018).

Common to all, as to settings: banded MIC grade
One experiment deals with Aspergillus fumigatus. The experiment in a line: Minimum inhibitory concentration, YAG medium. It is filed as cell-based. The essentials:
(§1)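 Growth was read as optical density at 485 nm after 24 hrs at 35° C, and the MIC taken as the lowest drug concentration cutting growth by >70% relative to drug-free wells. Plates held doubling dilutions (50-0.05 mg/L) with 1-2×10^4 cfu/mL spores in YAG medium.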

Another experiment has as its system A. fumigatus 210. The experiment in a line: Minimum inhibitory concentration, YAG medium. It is filed as cell-based, Aspergillus fumigatus. The essentials:
as §1

In the next experiment the test system is A. terreus 49. The experiment in a line: Minimum inhibitory concentration, YAG medium. It is filed as cell-based, Aspergillus terreus. Summed up:
(§2)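 Compound in DMSO (5 mg/mL stock), diluted in water and doubling-diluted; Aspergillus spores grown in YAG medium 24 hrs at 35° C. Growth read as optical density at 485 nm; MIC given in mg/L.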

The next experiment relates to Aspergillus flavus. The experiment in a line: Minimum inhibitory concentration, YAG medium. The format is cell-based. The essentials: as §2
A further experiment has as its system Aspergillus niger. The experiment in a line: Minimum inhibitory concentration, YAG medium. The format is cell-based. The essentials: as §2
In the next experiment the test system is Aspergillus terreus. The experiment in a line: Minimum inhibitory concentration, YAG medium. It is filed as cell-based. The essentials: as §2
For a further experiment, the system named is C. albicans. The experiment in a line: Minimum inhibitory concentration, RPMI medium. It is filed as cell-based. The essentials: (§3)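 Broth microdilution in RPMI 1640 medium using doubling dilutions in water prepared from a 5 mg/mL DMSO stock. Plates incubated 24-48 hrs at 35° C; growth read as optical density at 485 nm.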
The test system of the next experiment is C. parapsilosis. The experiment in a line: Minimum inhibitory concentration, RPMI medium. It is filed as cell-based. Summed up: as §3
The subject of the next experiment is C. tropicalis. The experiment in a line: Minimum inhibitory concentration, RPMI medium. It is filed as cell-based. The essentials: as §3

Regarding `CN(CCCCCC1=NN=C(N)SC1)c1ccccc1`, the “MIC grade, A. FUMIGATUS, YAG media” value in the experiment on Aspergillus fumigatus is 2 (2: 1-5 mg/L). Further, the “MIC grade, A. FUMIGATUS 210, YAG media” value in the experiment on A. fumigatus 210 was 2 (2: 1-5 mg/L). Besides, the “MIC grade, A. TERREUS 49, YAG media” value in the experiment with A. terreus 49 is 3 (3: 0.2-1 mg/L). The “MIC grade, A. FLAVUS, YAG media” value in the experiment with Aspergillus flavus was 3 (3: 0.2-1 mg/L). Besides, in the experiment with Aspergillus niger, the “MIC grade, A. NIGER, YAG media” value is 3 (3: 0.2-1 mg/L). For the same compound, in the experiment with Aspergillus terreus, the “MIC grade, A. TERREUS, YAG media” value is listed as 3 (3: 0.2-1 mg/L). Further, the “MIC grade, C. ALBICANS, RPMI media” value with C. albicans is reported as 1 (1: ≥20 mg/L). Also, the “MIC grade, C. PARAPSILOSIS, RPMI media” value against C. parapsilosis was 2 (2: 5-20 mg/L). For the same compound, in the experiment with C. tropicalis, the “MIC grade, C. TROPICALIS, RPMI media” value was 1 (1: ≥20 mg/L).
With `COc1ccc(COCCC2=NN=C(N)SC2)cc1`, in the experiment on Aspergillus fumigatus, the “MIC grade, A. FUMIGATUS, YAG media” value is on record as 3 (3: 0.2-1 mg/L). Further, in the experiment with A. fumigatus 210, the “MIC grade, A. FUMIGATUS 210, YAG media” value was 3 (3: 0.2-1 mg/L). Also, the “MIC grade, A. TERREUS 49, YAG media” value against A. terreus 49 is 3 (3: 0.2-1 mg/L). In the experiment with Aspergillus flavus, the “MIC grade, A. FLAVUS, YAG media” value is reported as 3 (3: 0.2-1 mg/L). The “MIC grade, A. NIGER, YAG media” value in the experiment with Aspergillus niger is listed as 3 (3: 0.2-1 mg/L). For the same compound, in the experiment with Aspergillus terreus, the “MIC grade, A. TERREUS, YAG media” value is listed as 3 (3: 0.2-1 mg/L). Moreover, the “MIC grade, C. ALBICANS, RPMI media” value against C. albicans is 2 (2: 5-20 mg/L). In the experiment with C. parapsilosis, the “MIC grade, C. PARAPSILOSIS, RPMI media” value is recorded as 3 (3: 1-5 mg/L). The “MIC grade, C. TROPICALIS, RPMI media” value against C. tropicalis is listed as 2 (2: 5-20 mg/L).
As to `NC1=NN=C(CCCCC(=O)Nc2ccccc2)CS1`, the “MIC grade, A. FUMIGATUS, YAG media” value in the experiment with Aspergillus fumigatus is listed as 3 (3: 0.2-1 mg/L). Besides, in the experiment with A. fumigatus 210, the “MIC grade, A. FUMIGATUS 210, YAG media” value is 3 (3: 0.2-1 mg/L). Also, the “MIC grade, A. TERREUS 49, YAG media” value against A. terreus 49 is given as 2 (2: 1-5 mg/L). In the experiment with Aspergillus flavus, the “MIC grade, A. FLAVUS, YAG media” value is given as 3 (3: 0.2-1 mg/L). Further, in the experiment with Aspergillus niger, the “MIC grade, A. NIGER, YAG media” value is given as 2 (2: 1-5 mg/L). Also, the “MIC grade, A. TERREUS, YAG media” value against Aspergillus terreus is given as 2 (2: 1-5 mg/L). In addition, the “MIC grade, C. ALBICANS, RPMI media” value against C. albicans is recorded as 1 (1: ≥20 mg/L). For the same compound, the “MIC grade, C. PARAPSILOSIS, RPMI media” value in the experiment with C. parapsilosis is on record as 2 (2: 5-20 mg/L). Further, the “MIC grade, C. TROPICALIS, RPMI media” value with C. tropicalis is given as 1 (1: ≥20 mg/L).
As to `CCCCCCCC1=CSC(N)=NN1` [5-heptyl-4~{H}-1,3,4-thiadiazin-2-amine], the “MIC grade, A. FUMIGATUS, YAG media” value in the experiment on Aspergillus fumigatus is 4 (4: <0.2 mg/L). Moreover, in the experiment on A. fumigatus 210, the “MIC grade, A. FUMIGATUS 210, YAG media” value was 4 (4: <0.2 mg/L). Also, the “MIC grade, A. TERREUS 49, YAG media” value in the experiment with A. terreus 49 was 3 (3: 0.2-1 mg/L). Besides, in the experiment with Aspergillus flavus, the “MIC grade, A. FLAVUS, YAG media” value is 4 (4: <0.2 mg/L). The “MIC grade, A. NIGER, YAG media” value against Aspergillus niger is given as 4 (4: <0.2 mg/L). Moreover, in the experiment with Aspergillus terreus, the “MIC grade, A. TERREUS, YAG media” value is recorded as 4 (4: <0.2 mg/L). In addition, the “MIC grade, C. ALBICANS, RPMI media” value in the experiment on C. albicans is given as 3 (3: 1-5 mg/L). Also, the “MIC grade, C. PARAPSILOSIS, RPMI media” value with C. parapsilosis is given as 3 (3: 1-5 mg/L). In the experiment with C. tropicalis, the “MIC grade, C. TROPICALIS, RPMI media” value is on record as 3 (3: 1-5 mg/L).
`NC1=NN=C(CC(=O)OCc2ccccc2)CS1`: the “MIC grade, A. FUMIGATUS, YAG media” value in the experiment on Aspergillus fumigatus is 1 (1: ≥5 mg/L). Further, the “MIC grade, A. FUMIGATUS 210, YAG media” value against A. fumigatus 210 was 1 (1: ≥5 mg/L). Further, in the experiment with A. terreus 49, the “MIC grade, A. TERREUS 49, YAG media” value is 2 (2: 1-5 mg/L). Besides, in the experiment on Aspergillus flavus, the “MIC grade, A. FLAVUS, YAG media” value is reported as 1 (1: ≥5 mg/L). The “MIC grade, A. NIGER, YAG media” value in the experiment on Aspergillus niger is 2 (2: 1-5 mg/L). Moreover, the “MIC grade, A. TERREUS, YAG media” value against Aspergillus terreus is on record as 2 (2: 1-5 mg/L). Moreover, the “MIC grade, C. ALBICANS, RPMI media” value against C. albicans is listed as 1 (1: ≥20 mg/L). The “MIC grade, C. PARAPSILOSIS, RPMI media” value in the experiment on C. parapsilosis is on record as 2 (2: 5-20 mg/L). For the same compound, the “MIC grade, C. TROPICALIS, RPMI media” value against C. tropicalis is 1 (1: ≥20 mg/L).
In the case of `COCCCCCC1=CSC(=N)NN1C`, the “MIC grade, A. FUMIGATUS, YAG media” value in the experiment on Aspergillus fumigatus is 3 (3: 0.2-1 mg/L). In the experiment on A. fumigatus 210, the “MIC grade, A. FUMIGATUS 210, YAG media” value was 4 (4: <0.2 mg/L). Also, the “MIC grade, A. TERREUS 49, YAG media” value in the experiment on A. terreus 49 is recorded as 4 (4: <0.2 mg/L). The “MIC grade, A. FLAVUS, YAG media” value with Aspergillus flavus is recorded as 4 (4: <0.2 mg/L). For the same compound, in the experiment with Aspergillus niger, the “MIC grade, A. NIGER, YAG media” value was 3 (3: 0.2-1 mg/L). Besides, the “MIC grade, A. TERREUS, YAG media” value against Aspergillus terreus is listed as 3 (3: 0.2-1 mg/L). Besides, in the experiment on C. albicans, the “MIC grade, C. ALBICANS, RPMI media” value is recorded as 4 (4: <1 mg/L). Moreover, in the experiment with C. parapsilosis, the “MIC grade, C. PARAPSILOSIS, RPMI media” value is on record as 4 (4: <1 mg/L). In the experiment on C. tropicalis, the “MIC grade, C. TROPICALIS, RPMI media” value was 3 (3: 1-5 mg/L).
Regarding `CCCCOC1CCC2=NN=C(N)SC2C1` (stereo not drawn), the “MIC grade, A. FUMIGATUS, YAG media” value against Aspergillus fumigatus was 1 (1: ≥5 mg/L). Further, in the experiment with A. fumigatus 210, the “MIC grade, A. FUMIGATUS 210, YAG media” value was 3 (3: 0.2-1 mg/L). Further, the “MIC grade, A. TERREUS 49, YAG media” value in the experiment on A. terreus 49 was 2 (2: 1-5 mg/L). Besides, the “MIC grade, A. FLAVUS, YAG media” value with Aspergillus flavus is on record as 2 (2: 1-5 mg/L). Further, the “MIC grade, A. NIGER, YAG media” value against Aspergillus niger is given as 2 (2: 1-5 mg/L). The “MIC grade, A. TERREUS, YAG media” value against Aspergillus terreus was 2 (2: 1-5 mg/L). Besides, in the experiment with C. albicans, the “MIC grade, C. ALBICANS, RPMI media” value is given as 1 (1: ≥20 mg/L). Moreover, the “MIC grade, C. PARAPSILOSIS, RPMI media” value in the experiment on C. parapsilosis is listed as 1 (1: ≥20 mg/L). Moreover, in the experiment with C. tropicalis, the “MIC grade, C. TROPICALIS, RPMI media” value was 1 (1: ≥20 mg/L).
